Biological target: KRAS G12D (Homo sapiens, UniProt P01116, G12D)
Test: GDP-GTP exchange assay (KRAS_G12D exchange)
Assay type: biochemical
Details: bodipy loaded KRAS G12D 2.5 nM; 4 hours incubation after GppNHp-SOS1; read-out: G12D_exchange
Protocol: Example A. GDP-GTP Exchange Assay
The inhibitor potency of the exemplified compounds was determined in a fluorescence based guanine nucleotide exchange assay, which measures the exchange of bodipy-GDP (fluorescently labeled GDP) for GppNHp (Non-hydrolyzable GTP analog) to generate the active state of KRAS in the presence of SOS1 (guanine nucleotide exchange factor). Inhibitors were serially diluted in DMSO and a volume of 0.1 μL was transferred to the wells of a black low volume 384-well plate. 5 μL/well volume of bodipy-loaded KRAS G12C diluted to 5 nM in assay buffer (25 mM Hepes pH 7.5, 50 mM NaCl, 10 mM MgCl2 and 0.01% Brij-35) was added to the plate and pre-incubated with inhibitor for 2 hours at ambient temperature. Appropriate controls (enzyme with no inhibitor or with a G12C inhibitor (AMG-510)) were included on the plate. The exchange was initiated by the addition of a 5 μL/well volume containing 1 mM GppNHp and 300 nM SOS1 in assay buffer. The 10 μL/well reaction concentration of the bodipy-loaded KRAS G12C, GppNHp, and SOS1 were 2.5 nM, 500 uM, and 150 nM, respectively. The reaction plates were incubated at ambient temperature for 2 hours, a time estimated for complete GDP-GTP exchange in the absence of inhibitor. For the KRAS G12D and G12V mutants, similar guanine nucleotide exchange assays were used with 2.5 nM as final concentration for the bodipy loaded KRAS proteins and with 4 hours and 3 hours incubation after adding GppNHp-SOS1 mixture for G12D and G12V respectively. A cyclic peptide described to selectively bind G12D mutant (Sakamoto et al., BBRC 484.3 (2017), 605-611) or internal compounds with confirmed binding were used as positive controls in the assay plates. Fluorescence intensities were measured on a PheraStar plate reader instrument (BMG Labtech) with excitation at 485 nm and emission at 520 nm.
Either GraphPad prism or XLfit was used to analyze the data. The IC50 values were derived by fitting the data to a four parameter logistic equation producing a sigmoidal dose-response curve with a variable Hill coefficient. Prism equation: Y=Bottom+(Top−Bottom)/(1+10^((Log lC50−X)*Hill slope)); XLfit equation: Y=(A+((B−A)/(1+((X/C)^D)))) where X is the logarithm of inhibitor concentration and Y is the response.

Sequence of KRAS G12D (P01116 1-188 isoform P01116-2 G12D): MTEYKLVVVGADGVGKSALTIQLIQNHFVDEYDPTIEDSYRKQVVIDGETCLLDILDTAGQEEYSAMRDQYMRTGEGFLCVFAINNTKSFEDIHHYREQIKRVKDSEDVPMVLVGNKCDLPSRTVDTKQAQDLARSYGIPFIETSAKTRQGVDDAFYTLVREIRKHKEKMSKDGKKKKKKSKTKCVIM

Structure (SMILES) | IC50
CN(C)Cc1nc2c(N3CC(N(C)C)C3)nc3c(F)c(-c4cc(O)cc5ccccc45)c(Cl)cc3c2n1[C@H]1[C@H]2CN[C@@H]1C2 (racemic) [Example 49, 4-(1-((endo)-2-azabicyclo[2.1.1]hexan-5-yl)-8-chloro-4-(3-(dimethylamino)-azetidin-1-yl)-2-((dimethylamino)methyl)-6-fluoro-1H-imidazo[4,5-c]quinolin-7-yl)naphthalen-2-ol] | 5 to 10 µM
CN(C)C(=O)CCc1nc2c(N3CC(N(C)C)C3)nc3c(Cc4ccccc4)c(-c4cc(O)cc5ccccc45)c(CCC#N)cc3c2n1[C@@H]1[C@@H]2CN[C@H]1C2 (racemic) [Example 294, 3-(6-benzyl-1-((endo)-2-azabicyclo[2.1.1]hexan-5-yl)-8-(2-cyanoethyl)-4-(3-(dimethylamino)azetidin-1-yl)-7-(3-hydroxynaphthalen-1-yl)-1H-imidazo[4,5-c]quinolin-2-yl)-N,N-dimethylpropanamide] | 0.1 to 1 µM
CN(C)C1CN(c2nc3c(F)c(-c4cc(O)cc5ccccc45)c(C#N)cc3c3c2ncn3[C@H]2[C@H]3CN[C@@H]2C3)C1 (relative stereo) [Example 50, 1-((endo)-2-azabicyclo[2.1.1]hexan-5-yl)-4-(3-(dimethylamino)azetidin-1-yl)-6-fluoro-7-(3-hydroxynaphthalen-1-yl)-1H-imidazo[4,5-c]quinoline-8-carbonitrile] | 0.1 to 1 µM
CN(C)C1CN(c2nc3c(F)c(-c4cc(O)cc5ccccc45)c(Cl)cc3c3c2nc(CO)n3[C@H]2[C@H]3CN[C@@H]2C3)C1 (relative stereo) [Example 75, 4-(1-((endo)-2-azabicyclo[2.1.1]hexan-5-yl)-8-chloro-4-(3-(dimethylamino)-azetidin-1-yl)-6-fluoro-2-(hydroxymethyl)-1H-imidazo[4,5-c]quinolin-7-yl)naphthalen-2-ol] | 0.1 to 1 µM
CN(C)C1CN(c2nc3c(F)c(-c4cc(O)cc5ccccc45)c(Cl)cc3c3c2nc(CC2CCNCC2)n3[C@H]2[C@H]3CN[C@@H]2C3)C1 (relative stereo) [Example 77, 4-(1-((endo)-2-azabicyclo[2.1.1]hexan-5-yl)-8-chloro-4-(3-(dimethylamino)azetidin-1-yl)-6-fluoro-2-(piperidin-4-ylmethyl)-1H-imidazo[4,5-c]quinolin-7-yl)naphthalen-2-ol] | 1 to 5 µM
CN(C)C1CN(c2nc3c(F)c(-c4cc(O)cc5ccccc45)c(Cl)cc3c3c2nc(C2CCS(=O)(=O)CC2)n3[C@H]2[C@H]3CN[C@@H]2C3)C1 (relative stereo) [Example 79, 4-(1-((endo)-2-azabicyclo[2.1.1]hexan-5-yl)-8-chloro-4-(3-(dimethylamino)azetidin-1-yl)-6-fluoro-7-(3-hydroxynaphthalen-1-yl)-1H-imidazo[4,5-c]quinolin-2-yl)tetrahydro-2H-thiopyran 1,1-dioxide] | 0.1 to 1 µM
CN(C)C1CN(c2nc3c(F)c(-c4cc(O)cc5ccc(Cl)cc45)c(Cl)cc3c3c2ncn3[C@H]2[C@H]3CN[C@@H]2C3)C1 (single isomer, unassigned) [Example 23a, 4-(1-((endo)-2-azabicyclo[2.1.1]hexan-5-yl)-8-chloro-4-(3-(dimethylamino)azetidin-1-yl)-6-fluoro-1H-imidazo[4,5-c]quinolin-7-yl)-6-chloronaphthalen-2-ol] | 0.1 to 1 µM
CN(C)C1CN(c2nc3c(F)c(-c4cc(O)cc5ccccc45)c(-c4cn[nH]c4)cc3c3c2ncn3[C@H]2[C@H]3CN[C@@H]2C3)C1 (single isomer, unassigned) [Example 25a, 4-(1-((endo)-2-azabicyclo[2.1.1]hexan-5-yl)-4-(3-(dimethylamino)azetidin-1-yl)-6-fluoro-8-(1H-pyrazol-4-yl)-1H-imidazo[4,5-c]quinolin-7-yl)naphthalen-2-ol] | 5 to 10 µM
Cc1cc2c(nc(N3CC(N(C)C)C3)c3ncn([C@H]4[C@H]5CN[C@@H]4C5)c32)c(F)c1-c1cc(O)cc2ccccc12 (single isomer, unassigned) [Example 34a, 4-(1-((endo)-2-azabicyclo[2.1.1]hexan-5-yl)-4-(3-(dimethyl-amino)azetidin-1-yl)-6-fluoro-8-methyl-1H-imidazo[4,5-c]quinolin-7-yl)naphthalen-2-ol] | 0.1 to 1 µM
Oc1cc(-c2c(Cl)cc3c(nc(N4C5CCC4CNC5)c4ncn([C@H]5[C@H]6CN[C@@H]5C6)c43)c2F)c2ccccc2c1 (single isomer, unassigned) [Example 35a, 4-(1-((endo)-2-azabicyclo[2.1.1]hexan-5-yl)-4-(3,8-diazabicyclo[3.2.1]octan-8-yl)-8-chloro-6-fluoro-1H-imidazo[4,5-c]quinolin-7-yl)naphthalen-2-ol] | 1 to 5 µM
CN(C)C1CN(c2nc3c(F)c(-c4cc(O)cc5ccccc45)c(Cl)cc3c3c2ncn3[C@H]2[C@H]3CN[C@@H]2C3)C1 (single isomer, unassigned) [Example 48a, 4-(1-((endo)-2-azabicyclo[2.1.1]hexan-5-yl)-8-chloro-4-(3-(dimethylamino)azetidin-1-yl)-6-fluoro-1H-imidazo[4,5-c]quinolin-7-yl)naphthalen-2-ol] | 0.1 to 1 µM
CN(C)C(=O)CCc1nc2c(N3CC(N(C)C)C3)nc3c(F)c(-c4cccc5ccc(F)cc45)c(CCC#N)cc3c2n1C1C2CNC1C2 (single isomer, unassigned) [Example 291b, 3-(1-((endo)-2-azabicyclo[2.1.1]hexan-5-yl)-8-(2-cyanoethyl)-4-(3-(dimethylamino)azetidin-1-yl)-6-fluoro-7-(7-fluoronaphthalen-1-yl)-1H-imidazo[4,5-c]quinolin-2-yl)-N,N-dimethylpropanamide] | ≤ 0.1 µM
CCc1nc2c(N3CC(N(C)C)C3)nc3c(F)c(-c4cc(O)cc5ccc(F)cc45)c(CCC#N)cc3c2n1C1C2CNC1C2 (single isomer, unassigned) [Example 292b, 3-(1-((endo)-2-azabicyclo[2.1.1]hexan-5-yl)-4-(3-(dimethylamino)azetidin-1-yl)-2-ethyl-6-fluoro-7-(7-fluoro-3-hydroxynaphthalen-1-yl)-1H-imidazo[4,5-c]quinolin-8-yl)propanenitrile] | ≤ 0.1 µM
CNCCc1nc2c(N3CC(N(C)C)C3)nc3c(F)c(-c4cc(O)cc5ccccc45)c(-c4cn[nH]c4)cc3c2n1C1C2CNC1C2 (single isomer, unassigned) [Example 295b, 4-(1-((endo)-2-azabicyclo[2.1.1]hexan-5-yl)-4-(3-(dimethylamino)azetidin-1-yl)-6-fluoro-2-(2-(methylamino)ethyl)-8-(1H-pyrazol-4-yl)-1H-imidazo[4,5-c]quinolin-7-yl)naphthalen-2-ol] | 0.1 to 1 µM
CCc1nc2c(N3CC(N(C)C)C3)nc3c(F)c(-c4cc(O)cc5ccccc45)c(CCC#N)cc3c2n1C1C2CC1N(Cc1ccc[nH]1)C2 (single isomer, unassigned) [Example 296b, 3-(1-((endo)-2-((1H-pyrrol-2-yl)methyl)-2-azabicyclo[2.1.1]hexan-5-yl)-4-(3-(dimethylamino)azetidin-1-yl)-2-ethyl-6-fluoro-7-(3-hydroxynaphthalen-1-yl)-1H-imidazo[4,5-c]quinolin-8-yl)propanenitrile] | ≤ 0.1 µM
CN(C)C1CN(c2nc3c(F)c(-c4cc(O)cc5ccccc45)c(CCC#N)cc3c3c2nc(CN2CCOCC2=O)n3C2C3CNC2C3)C1 (single isomer, unassigned) [Example 300a, 3-(1-((endo)-2-azabicyclo[2.1.1]hexan-5-yl)-4-(3-(dimethylamino)azetidin-1-yl)-6-fluoro-7-(3-hydroxynaphthalen-1-yl)-2-((3-oxomorpholino)methyl)-1H-imidazo[4,5-c]quinolin-8-yl)propanenitrile] | ≤ 0.1 µM
CN(C)C1CN(c2nc3c(F)c(-c4cc(O)cc5ccccc45)c(CCC#N)cc3c3c2nc(-c2csc(N4CCNCC4)n2)n3C2C3CNC2C3)C1 (single isomer, unassigned) [Example 302a, 3-(1-((endo)-2-azabicyclo[2.1.1]hexan-5-yl)-4-(3-(dimethylamino)azetidin-1-yl)-6-fluoro-7-(3-hydroxynaphthalen-1-yl)-2-(2-(piperazin-1-yl)thiazol-4-yl)-1H-imidazo[4,5-c]quinolin-8-yl)propanenitrile] | ≤ 0.1 µM
Cc1nc2c(N3CC(N(C)C)C3)nc3c(F)c(-c4cc(O)cc5ccccc45)c(Cl)cc3c2n1[C@H]1[C@H]2CN[C@@H]1C2 [Example 15, 4-(1-((endo)-2-azabicyclo[2.1.1]hexan-5-yl)-8-chloro-4-(3-(dimethylamino)-azetidin-1-yl)-6-fluoro-2-methyl-1H-imidazo[4,5-c]quinolin-7-yl)naphthalen-2-ol] | 1 to 5 µM
